Source: patent US20260337253A1, “INHIBITION OF GUT BACTERIA” (priority 2025, published 2026)
Non-standard residues stand in square brackets, D forms with d. Residues, ends and D or L forms follow the SMILES beside them. *: point of attachment. boroGlu = O=C(O)CC[C@H](N*)B(O)O; Gly(cPr) = N[C@H](C(=O)O)C1CC1

Target: His6-CylA-27-412 (Enterococcus faecalis, UniProt A0A2P6AWB8)
Experiment: In vitro co-operative pore formation assay (pyranine-encapsulated DOPC liposomes, mCylLS:mCylLL)
Type: biochemical
Source text: In vitro pore formation assay for determining inhibitor effectiveness with high sensitivity. The assay uses pore formation as an indicator of toxin maturation. […] Pore formation dissipates a pH gradient between the interior of the liposome and the surrounding buffer increasing pyranine fluorescence.
Within the liposomes was a buffer of lower pH (6.0), and therefore any pore formation or membrane disruption would result in an increase in internal pH, which increases the fluorescence signal of the pyranine. In this way, pyranine fluorescence can be correlated to toxin activation allowing for the determination of EC50 values.
To a well in a black 96-well plate (200 μL) was added 90 μL high pH buffer (5 mM MES, 5 mM Tricine, 5 mM NaCl, pH 7.4) containing CylA (4 nM final concentration). After adding inhibitor, the mixture was incubated at room temperature for 10 min then freshly prepared (no more than 2 days old) pyranine encapsulated DOPC liposomes were added such that the total DOPC concentration was 80 μM. […] The resulting curves were max-min normalized yielding the fraction of permeabilized liposomes. […] This experiment was performed in duplicate or triplicate for each inhibitor at each concentration. […] Errors presented are those calculated by Origin 7 during the fitting process.

His6-CylA-27-412, sequence (A0A2P6AWB8 entry or part of it): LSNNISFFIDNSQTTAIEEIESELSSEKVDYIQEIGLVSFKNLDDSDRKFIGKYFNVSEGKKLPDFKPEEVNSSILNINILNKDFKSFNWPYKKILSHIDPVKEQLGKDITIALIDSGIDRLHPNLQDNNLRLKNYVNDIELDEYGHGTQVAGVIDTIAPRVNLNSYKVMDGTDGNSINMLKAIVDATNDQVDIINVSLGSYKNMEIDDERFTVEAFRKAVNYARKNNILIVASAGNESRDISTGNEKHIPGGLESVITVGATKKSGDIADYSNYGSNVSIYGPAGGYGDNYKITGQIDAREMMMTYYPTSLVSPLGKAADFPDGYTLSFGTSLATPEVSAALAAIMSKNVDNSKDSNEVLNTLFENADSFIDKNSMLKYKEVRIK

SMILES: CC(=O)NCC(=O)N[C@@H](CC(=O)O)C(=O)N[C@H](C(=O)N[C@@H](CCC(N)=O)C(=O)N[C@@H](C)C(=O)N[C@@H](CCC(=O)O)B(O)O)C1CC1 [Compound 9, Ac-Gly-Asp-Cpg-Gln-Ala-Glu-BA] (Ac-GD[Gly(cPr)]QA-boroGlu)
- EC50: 12.5 ± 1.4 nM
